For 31 compounds, IC50 and Activity results are on record in ChEMBL document CHEMBL3400130, “Identification of apoptosis signal-regulating kinase 1 (ASK1) inhibitors among the derivatives of benzothiazol-2-yl-3-hydroxy-5-phenyl-1,5-dihydro-pyrrol-2-one” (Bioorg Med Chem, 2015).

Assay [1] has as its target T1, Mitogen-activated protein kinase kinase kinase 5 (Homo sapiens, UniProt Q99683).
T1 sequence (Q99683 whole entry): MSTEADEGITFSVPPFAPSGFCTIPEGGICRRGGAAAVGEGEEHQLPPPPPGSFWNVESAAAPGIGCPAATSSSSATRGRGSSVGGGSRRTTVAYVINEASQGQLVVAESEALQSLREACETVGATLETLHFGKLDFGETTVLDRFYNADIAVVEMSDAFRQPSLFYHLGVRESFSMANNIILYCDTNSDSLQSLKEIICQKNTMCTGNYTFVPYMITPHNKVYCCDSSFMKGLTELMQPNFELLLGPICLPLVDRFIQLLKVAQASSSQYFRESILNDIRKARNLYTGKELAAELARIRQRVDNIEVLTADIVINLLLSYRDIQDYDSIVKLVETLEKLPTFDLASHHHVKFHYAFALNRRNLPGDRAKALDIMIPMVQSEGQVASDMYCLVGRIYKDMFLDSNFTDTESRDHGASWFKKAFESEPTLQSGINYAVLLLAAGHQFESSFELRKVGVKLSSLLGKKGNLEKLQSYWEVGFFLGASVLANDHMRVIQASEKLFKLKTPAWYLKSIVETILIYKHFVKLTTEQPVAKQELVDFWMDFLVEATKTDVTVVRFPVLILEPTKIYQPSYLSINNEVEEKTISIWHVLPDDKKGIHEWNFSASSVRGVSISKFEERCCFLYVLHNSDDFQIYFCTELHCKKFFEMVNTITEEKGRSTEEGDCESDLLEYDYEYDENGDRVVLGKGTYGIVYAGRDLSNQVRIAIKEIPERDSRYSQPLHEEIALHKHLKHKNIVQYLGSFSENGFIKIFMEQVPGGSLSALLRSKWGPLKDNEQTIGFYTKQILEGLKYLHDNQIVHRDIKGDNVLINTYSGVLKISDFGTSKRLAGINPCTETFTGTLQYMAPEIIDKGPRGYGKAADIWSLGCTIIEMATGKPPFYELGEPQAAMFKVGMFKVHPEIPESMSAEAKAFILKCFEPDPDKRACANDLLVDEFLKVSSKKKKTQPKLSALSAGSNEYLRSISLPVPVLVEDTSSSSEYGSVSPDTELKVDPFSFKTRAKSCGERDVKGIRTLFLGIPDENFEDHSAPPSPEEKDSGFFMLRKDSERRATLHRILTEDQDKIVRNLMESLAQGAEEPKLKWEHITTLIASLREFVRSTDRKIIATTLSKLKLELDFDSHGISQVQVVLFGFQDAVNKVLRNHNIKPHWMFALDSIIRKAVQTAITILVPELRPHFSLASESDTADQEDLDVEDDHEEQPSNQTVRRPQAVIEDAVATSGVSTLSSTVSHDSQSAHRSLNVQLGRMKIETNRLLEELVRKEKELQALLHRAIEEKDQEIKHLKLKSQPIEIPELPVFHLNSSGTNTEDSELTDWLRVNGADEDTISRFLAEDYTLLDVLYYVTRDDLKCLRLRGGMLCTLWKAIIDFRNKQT
In words: Inhibition of recombinant ASK1 catalytic subunit (unknown origin) using MBP substrate and gamma-labeled 32P ATP incubated for 20 mins by liquid scintillation counting method.

Assay [2] concerns the target Fibroblast growth factor receptor 1 (Homo sapiens) (UniProt P11362). In words: Inhibition of FGFR1 (unknown origin) assessed as residual enzyme activity at 10 uM using IGF-IRtide (12 to 527) substrate.
For assay [3], the target named is T2, Aurora kinase A (Homo sapiens) (UniProt O14965).
T2 sequence (whole entry): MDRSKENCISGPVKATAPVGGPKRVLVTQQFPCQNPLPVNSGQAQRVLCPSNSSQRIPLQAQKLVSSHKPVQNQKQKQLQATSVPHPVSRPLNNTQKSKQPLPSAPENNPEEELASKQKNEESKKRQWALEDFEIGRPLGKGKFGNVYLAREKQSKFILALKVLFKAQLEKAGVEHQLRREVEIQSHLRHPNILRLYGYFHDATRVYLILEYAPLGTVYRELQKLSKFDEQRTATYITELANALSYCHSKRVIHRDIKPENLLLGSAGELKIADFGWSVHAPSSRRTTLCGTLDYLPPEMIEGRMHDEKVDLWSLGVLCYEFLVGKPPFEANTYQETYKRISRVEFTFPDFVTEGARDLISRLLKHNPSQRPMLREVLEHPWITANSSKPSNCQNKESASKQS
In words: Inhibition of Aurora A (unknown origin) assessed as residual enzyme activity at 10 uM using kemptide substrate.

Assay [4] has as its target Angiopoietin-1 receptor (Homo sapiens) (UniProt Q02763). In words: Inhibition of Tie2 (unknown origin) assessed as residual enzyme activity at 10 uM using TK Substrate 2 (poly Glu-Tyr) substrate.
Assay [5] deals with Mitogen-activated protein kinase 10 (Homo sapiens) (UniProt P53779). In words: Inhibition of JNK3 (unknown origin) assessed as residual enzyme activity at 10 uM using JNK3tide substrate.
Sequence of Mitogen-activated protein kinase 10 (Homo sapiens) (P53779 whole entry): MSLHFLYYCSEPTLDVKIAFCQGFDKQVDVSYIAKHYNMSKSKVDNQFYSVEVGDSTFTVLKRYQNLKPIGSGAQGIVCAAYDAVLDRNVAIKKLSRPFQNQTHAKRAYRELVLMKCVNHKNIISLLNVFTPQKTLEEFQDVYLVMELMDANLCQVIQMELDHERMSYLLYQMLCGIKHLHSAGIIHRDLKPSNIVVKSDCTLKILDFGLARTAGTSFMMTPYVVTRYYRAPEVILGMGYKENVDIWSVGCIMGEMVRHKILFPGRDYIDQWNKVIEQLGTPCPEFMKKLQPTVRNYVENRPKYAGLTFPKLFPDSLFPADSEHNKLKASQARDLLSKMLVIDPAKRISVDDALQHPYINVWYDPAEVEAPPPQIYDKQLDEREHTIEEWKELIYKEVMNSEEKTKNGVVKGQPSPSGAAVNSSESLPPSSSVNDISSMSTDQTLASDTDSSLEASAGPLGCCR
Assay [6] deals with Casein kinase II (Homo sapiens) (UniProt P67870+P68400+P19784). In words: Inhibition of CK2 (unknown origin) assessed as residual enzyme activity at 10 uM using RRRDDDSDDD substrate peptide. It is filed as protein-complex assay.
In assay [7] the target is T3, Mitogen-activated protein kinase kinase kinase 5 (Homo sapiens) (UniProt Q99683).
T3 sequence (whole entry): T1 sequence (Q99683 whole entry)
In words: Inhibition of recombinant ASK1 catalytic subunit (unknown origin) assessed as residual enzyme activity at 10 uM using MBP substrate and gamma-labeled 32P ATP incubated for 20 mins by liquid scintillation counting method.

Sequence of Angiopoietin-1 receptor (Homo sapiens) (Q02763 whole entry): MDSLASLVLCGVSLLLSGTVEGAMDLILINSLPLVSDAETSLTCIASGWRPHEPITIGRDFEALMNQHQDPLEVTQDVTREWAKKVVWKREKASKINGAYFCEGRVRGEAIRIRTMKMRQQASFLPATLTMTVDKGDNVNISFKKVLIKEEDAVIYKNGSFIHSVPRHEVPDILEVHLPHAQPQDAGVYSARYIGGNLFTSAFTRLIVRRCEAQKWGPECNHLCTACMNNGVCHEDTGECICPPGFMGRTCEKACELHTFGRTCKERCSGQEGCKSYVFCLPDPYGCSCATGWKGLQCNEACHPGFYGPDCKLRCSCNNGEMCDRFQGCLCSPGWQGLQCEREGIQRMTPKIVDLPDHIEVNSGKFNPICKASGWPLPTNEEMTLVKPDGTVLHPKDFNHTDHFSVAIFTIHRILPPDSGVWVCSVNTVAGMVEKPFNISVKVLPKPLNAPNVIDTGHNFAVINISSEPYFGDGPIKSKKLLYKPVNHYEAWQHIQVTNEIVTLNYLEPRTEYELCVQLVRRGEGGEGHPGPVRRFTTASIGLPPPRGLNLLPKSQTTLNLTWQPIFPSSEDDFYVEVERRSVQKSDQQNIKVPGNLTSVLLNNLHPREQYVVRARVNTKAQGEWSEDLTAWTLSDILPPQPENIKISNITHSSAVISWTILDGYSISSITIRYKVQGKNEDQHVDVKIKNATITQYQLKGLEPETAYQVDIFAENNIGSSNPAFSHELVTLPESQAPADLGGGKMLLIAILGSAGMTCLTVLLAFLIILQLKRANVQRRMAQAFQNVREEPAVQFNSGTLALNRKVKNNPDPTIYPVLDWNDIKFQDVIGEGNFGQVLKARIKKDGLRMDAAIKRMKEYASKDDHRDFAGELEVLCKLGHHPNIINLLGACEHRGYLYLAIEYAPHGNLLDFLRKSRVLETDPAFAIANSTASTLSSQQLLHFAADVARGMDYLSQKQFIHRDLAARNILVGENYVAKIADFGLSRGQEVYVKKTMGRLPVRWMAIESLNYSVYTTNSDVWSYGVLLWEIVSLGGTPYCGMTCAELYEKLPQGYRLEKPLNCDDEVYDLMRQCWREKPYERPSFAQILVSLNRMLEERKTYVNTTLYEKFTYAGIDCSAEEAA
Sequence of Fibroblast growth factor receptor 1 (Homo sapiens) (P11362 22-822 limits assumed): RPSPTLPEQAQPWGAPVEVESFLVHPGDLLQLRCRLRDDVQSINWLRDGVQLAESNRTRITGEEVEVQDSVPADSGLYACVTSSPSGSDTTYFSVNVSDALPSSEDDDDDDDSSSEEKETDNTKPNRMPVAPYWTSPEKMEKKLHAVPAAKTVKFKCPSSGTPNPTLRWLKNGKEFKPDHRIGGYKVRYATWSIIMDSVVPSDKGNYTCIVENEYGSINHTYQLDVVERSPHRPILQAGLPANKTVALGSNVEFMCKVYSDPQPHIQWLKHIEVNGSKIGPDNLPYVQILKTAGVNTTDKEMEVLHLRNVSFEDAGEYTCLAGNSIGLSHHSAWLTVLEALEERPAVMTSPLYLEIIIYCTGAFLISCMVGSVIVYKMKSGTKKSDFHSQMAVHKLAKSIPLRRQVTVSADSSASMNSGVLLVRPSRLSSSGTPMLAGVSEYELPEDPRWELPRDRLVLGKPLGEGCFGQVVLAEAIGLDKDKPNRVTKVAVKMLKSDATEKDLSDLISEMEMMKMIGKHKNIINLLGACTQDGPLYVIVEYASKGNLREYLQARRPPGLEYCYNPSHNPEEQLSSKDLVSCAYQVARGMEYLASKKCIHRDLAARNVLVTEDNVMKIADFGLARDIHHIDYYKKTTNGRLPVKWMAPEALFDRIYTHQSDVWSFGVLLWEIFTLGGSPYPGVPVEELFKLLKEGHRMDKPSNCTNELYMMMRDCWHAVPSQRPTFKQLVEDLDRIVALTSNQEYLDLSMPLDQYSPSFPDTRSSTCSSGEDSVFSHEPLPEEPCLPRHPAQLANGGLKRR

In general, IC50 refers to the point on the concentration scale where inhibition reaches its midpoint. For the compound `Cc1ccc(C(=O)C2=C(O)C(=O)N(c3nc4ccc(C)cc4s3)C2c2ccc(C(C)(C)C)cc2)cc1` (configuration not stated), in assay [1], the IC50 came out at 4.4 µM.

`CCCCCOc1ccc(C2C(C(=O)c3ccc4c(c3)CC(C)O4)=C(O)C(=O)N2c2nc3ccc(F)cc3s2)cc1` (configuration not stated): the Activity was found to be 26.9% in assay [2]; 28.4% in assay [3]; 68.4% in assay [4]; 100% in assay [5]; 92.6% in assay [6]; 18.1% in assay [7]. For the same compound, the IC50 in assay [1] turned out to be 0.75 µM.

Regarding `COc1ccc2nc(N3C(=O)C(O)=C(C(=O)c4ccco4)C3c3ccc(Cl)cc3)sc2c1` (configuration not stated), the Activity in assay [2] turned out to be 46.4%; in assay [3], 48.1%; in assay [4] it was 66.4%; in assay [5], 96.8%; in assay [6], 73.9%; in assay [7], 39.1%. In assay [1], the IC50 is 4.2 µM.

For `Cc1ccc2nc(N3C(=O)C(O)=C(C(=O)c4ccc(F)cc4)C3c3ccc(Cl)cc3)sc2c1` (configuration not stated), the IC50 in assay [1] was 2.9 µM.

For the compound `CCOc1ccc2nc(N3C(=O)C(O)=C(C(=O)c4ccccc4)C3c3ccc(C(C)(C)C)cc3)sc2c1` (configuration not stated), in assay [1], the IC50 came to 5 µM.

As for `Cc1ccc(C(=O)C2=C(O)C(=O)N(c3nc4ccc(F)cc4s3)C2c2ccc(C(C)(C)C)cc2)cc1` (configuration not stated), in assay [1], the IC50 stood at 7.6 µM.

For `CCCOc1ccc(C2C(C(=O)c3ccc4c(c3)OCCO4)=C(O)C(=O)N2c2nc3ccc(Cl)cc3s2)cc1` (configuration not stated), in assay [1], the half-maximal inhibitory concentration (IC50) was determined as 5 µM.

Turning to `Cc1ccc(C(=O)C2=C(O)C(=O)N(c3nc4ccc(F)cc4s3)C2c2ccc(C(C)(C)C)cc2)o1` (configuration not stated), the Activity in assay [2] is 92.7%; in assay [3], 100%; in assay [4], 100%; in assay [5], 100%; in assay [6] it was 68.3%; in assay [7] it was 32.6%. In addition, the IC50 in assay [1] was 1.55 µM.

`Cc1ccc2nc(N3C(=O)C(O)=C(C(=O)c4ccco4)C3c3cccc(Br)c3)sc2c1` (configuration not stated): in assay [1], the IC50 is 31 µM.

On to `Cc1cc(C)c2nc(N3C(=O)C(O)=C(C(=O)c4ccc(Cl)cc4)C3c3ccc(C(C)C)cc3)sc2c1` (configuration not stated), for which the IC50 in assay [1] turned out to be 6.3 µM.

In the case of `COc1ccc(C(=O)C2=C(O)C(=O)N(c3nc4ccc(F)cc4s3)C2c2cccc(F)c2)cc1` (configuration not stated), the IC50 in assay [1] came to 17 µM.

Take `O=C(C1=C(O)C(=O)N(c2nc3ccc(F)cc3s2)C1c1ccc(Br)cc1)c1ccco1` (configuration not stated): the IC50 in assay [1] worked out at 28.2 µM.

As to `CC(C)(C)c1ccc(C2C(C(=O)c3ccc4c(c3)OCCO4)=C(O)C(=O)N2c2nc3ccc(Cl)cc3s2)cc1` (configuration not stated), the Activity in assay [2] came out at 46.8%; in assay [3] it was 52.9%; in assay [4], 92.5%; in assay [5], 100%; in assay [6], 83.6%; in assay [7], 12.3%. In assay [1], the IC50 worked out at 2.5 µM.

`CCOc1ccc2nc(N3C(=O)C(O)=C(C(=O)c4ccccc4)C3c3ccc(Cl)cc3)sc2c1` (configuration not stated): the Activity in assay [2] is 65.7%; in assay [3] it was 36.5%; in assay [4], 62.8%; in assay [5], 100%; in assay [6], 79.3%; in assay [7] it was 16.2%. For the same compound, in assay [1], the IC50 came to 4.2 µM.

For `Cc1cc(C)c2nc(N3C(=O)C(O)=C(C(=O)c4ccco4)C3c3ccccc3)sc2c1` (configuration not stated), the IC50 in assay [1] was 63 µM.

With `Cc1cc(C)c2nc(N3C(=O)C(O)=C(C(=O)c4ccc(C)o4)C3c3ccc(C(C)C)cc3)sc2c1` (configuration not stated), the IC50 in assay [1] was determined as 2 µM.

For `CCCCOc1ccc(C2C(C(=O)c3ccc4c(c3)OCCO4)=C(O)C(=O)N2c2nc3ccc(C)cc3s2)cc1` (configuration not stated), the Activity turned out to be 58.1% in assay [2]; 20.5% in assay [3]; 94.2% in assay [4]; 100% in assay [5]; 85.6% in assay [6]; 19.8% in assay [7]. In addition, the IC50 in assay [1] turned out to be 4.6 µM.

Regarding `CC(C)CCOc1cccc(C2C(C(=O)c3ccc4c(c3)CC(C)O4)=C(O)C(=O)N2c2nc3ccc(F)cc3s2)c1` (configuration not stated), the Activity in assay [2] is 100%; in assay [3] it was 44.7%; in assay [4], 100%; in assay [5], 100%; in assay [6], 83.4%; in assay [7] it was 14%. Besides, the IC50 in assay [1] was determined as 0.52 µM.

Take `COc1ccccc1C1C(C(=O)c2ccc(C)o2)=C(O)C(=O)N1c1nc2c(C)cc(C)cc2s1` (configuration not stated): the IC50 in assay [1] stood at 35.5 µM.

For the compound `O=C(C1=C(O)C(=O)N(c2nc3ccc(F)cc3s2)C1c1cccc(Cl)c1)c1cccs1` (configuration not stated), the Activity in assay [2] was 74.4%; in assay [3], 28.1%; in assay [4] it was 63.5%; in assay [5], 89.9%; in assay [6], 71.5%; in assay [7], 27.6%. Moreover, the IC50 in assay [1] was determined as 4.5 µM.

On to `CCOc1ccc2nc(N3C(=O)C(O)=C(C(=O)c4ccc(C)cc4)C3c3ccc(C(C)(C)C)cc3)sc2c1` (configuration not stated), for which the Activity in assay [2] amounted to 40.3%; in assay [3], 52%; in assay [4] it was 100%; in assay [5], 100%; in assay [6] it was 97.8%; in assay [7], 23.5%. The 50% inhibitory concentration (IC50) in assay [1] is 2 µM.

On to `CCCCOc1ccc(C2C(C(=O)c3ccc4c(c3)OCCO4)=C(O)C(=O)N2c2nc3ccc(Cl)cc3s2)cc1` (configuration not stated), for which the Activity worked out at 36.2% in assay [2]; 35.2% in assay [3]; 100% in assay [4]; 100% in assay [5]; 99.3% in assay [6]; 15.8% in assay [7]. Also, the IC50 in assay [1] stood at 5.2 µM.

For `COc1ccc(C2C(C(=O)c3ccc(C)o3)=C(O)C(=O)N2c2nc3ccc(C)cc3s2)cc1OC` (configuration not stated), the IC50 in assay [1] turned out to be 38 µM.

For `O=C(C1=C(O)C(=O)N(c2nc3ccc(F)cc3s2)C1c1cccc(F)c1)c1ccco1` (configuration not stated), the IC50 in assay [1] is 42.6 µM.

With `CCOc1ccc(C(=O)C2=C(O)C(=O)N(c3nc4ccc(C)cc4s3)C2c2ccc(F)cc2)cc1` (configuration not stated), the IC50 in assay [1] came to 5.5 µM.

Regarding `CCCCCOc1ccc(C2C(C(=O)c3ccc4c(c3)OCCO4)=C(O)C(=O)N2c2nc3ccc(C)cc3s2)cc1` (configuration not stated), the Activity in assay [2] stood at 25.5%; in assay [3] it was 28.1%; in assay [4] it was 59.9%; in assay [5] it was 92.5%; in assay [6], 90%; in assay [7], 13.2%. Moreover, in assay [1], the IC50 was determined as 5.2 µM.

`O=C(C1=C(O)C(=O)N(c2nc3ccc(F)cc3s2)C1c1cccc(Cl)c1)c1ccco1` (configuration not stated): the IC50 in assay [1] turned out to be 28.2 µM.

In the case of `Cc1ccc2nc(N3C(=O)C(O)=C(C(=O)c4ccco4)C3c3ccc(Cl)cc3)sc2c1` (configuration not stated), the IC50 in assay [1] came out at 30.2 µM.

Regarding `Cc1ccc2nc(N3C(=O)C(O)=C(C(=O)c4ccco4)C3c3ccc(Br)cc3)sc2c1` (configuration not stated), in assay [1], the IC50 stood at 28.2 µM.

`O=C(C1=C(O)C(=O)N(c2nc3ccc(F)cc3s2)C1c1cccc(Br)c1)c1ccco1` (configuration not stated): the IC50 in assay [1] worked out at 29.5 µM.

Regarding `CCOc1ccc(C2C(C(=O)c3cccs3)=C(O)C(=O)N2c2nc3ccc(C)cc3s2)cc1` (configuration not stated), the IC50 in assay [1] was found to be 9.1 µM.
